# Tests used:
# Assay type in all cases: cell-based
# [1] = test system: HUVEC; assay: HUVEC tube formation assay
# Procedure: (§1) HUVEC or MLEC cells were seeded on Matrigel-coated plates (BD Bioscience). Medium was supplemented with VEGF or protein adducts as indicated, and cells were further incubated at 37° C. for 8 h. Tube formation was observed using a phase contrast inverted microscope, and photographs were taken from each well. The data were quantified by measuring the length of tubes with ImagePro software.
# [2] = test system: mouse aortic endothelial cells (MAEC); assay: Mouse aortic ring assay
# Procedure: The mouse aortic ring assay was performed as previously described (Mahabeleshwar, G. H. et al., Methods Mol Med. 129:197-208, 2006).
# [3] = test system: HUVEC; assay: Cell adhesion assay
# Procedure: We performed cell adhesion assays as described elsewhere (Byzova, T. V. et al., J Cell Biol. 143(7):2081-2092, 1998). Briefly, 10^4 HUVEC or MLEC cells were added to ligand coated wells of a 96-well plate and incubated for 1 h in the presence of CEP-adduct or VEGF as indicated. The cells were washed with and fixed with 4% paraformaldehyde in PBS. Thereafter cells were contrasted by hematoxylin staining and photographs were taken.
# [4] = test system: Mouse Lung Microvascular EC (MLEC); assay: MLEC tube formation assay; details: TLR2^−/− EC
# Procedure: Mouse lungs were excised, minced, and digested using a collagenase-dispase reagent (Roche Diagnostic). Digests were strained and the resulting cell suspension was plated on flasks coated with 1 mg/ml fibronectin. Thereafter, endothelial cells were isolated and characterized as described previously (Mahabeleshwar, G. H. et al., Methods Mol Med. 129:197-208, 2006).
# as §1
substance,measurement,setting,value
Pam3CSK4,"pro-angiogenic effect, tube formation",[1],as effective a stimulator as CEP or VEGF
same,"pro-angiogenic effect, aortic ring sprouting",[2]; wild type / TLR2^+/+ mice,induced robust sprouting
same,EC adhesion stimulation,[3],as effective a stimulator as CEP or VEGF
VEGF,"EC response, tube formation",[4],not affected by the lack of TLR2
same,"EC sprouting, aortic ring",[2]; MyD88^−/− cells,not affected by the lack of MyD88
same,"EC response, aortic ring sprouting",[2]; TLR2^−/− mice,not affected by the lack of TLR2
